From BigSolDB 2.1

Nc1nc(N)nc(-c2ccncc2)n1
solubility (mole fraction)
Details	288.15 K	293.15 K	298.15 K	303.15 K	308.15 K	313.15 K	318.15 K
in THF	0.00308	0.00334	0.00362	0.0039	0.00407	0.00433	0.00455
in ethanol	0.000734	0.000813	0.000925	0.0011	0.00122	0.00137	0.00159
in isopropanol	0.000426	0.000506	0.000641	0.000787	0.000925	0.00116	0.00142
in methanol	0.00138	0.00149	0.0017	0.00198	0.00214	0.00237	0.00269
in n-propanol	0.000641	0.00072	0.00083	0.000942	0.00111	0.00128	0.00153
